According to paper PMC7901654, “Bioisosteric Discovery of NPA101.3, a Second-Generation RET/VEGFR2 Inhibitor Optimized for Single-Agent Polypharmacology” (Journal of Medicinal Chemistry, 2020):

Key:
Assay in all cases: KinomeScan panel screen
Assay type in all cases: binding
[1] = target: T1, ASK1 (Homo sapiens, UniProt Q99683); conditions: ASK1, 100 nM; read-out: Percent Control
T1 construct: purchased DiscoveRx KINOMEscan (TRKA and CSF1R IC50 enzymes from Invitrogen)

[2] = target: T2, AURKA (Homo sapiens, UniProt O14965); conditions: 100 nM, read-out: Percent Control
T2 construct: purchased DiscoveRx KINOMEscan (TRKA and CSF1R IC50 enzymes from Invitrogen)

[3] = target: T3, CHEK2 (Homo sapiens, UniProt O96017); conditions: CHEK2, 100 nM; read-out: Percent Control
T3 construct: purchased DiscoveRx KINOMEscan (TRKA and CSF1R IC50 enzymes from Invitrogen)

[4] = target: T4, CLK1 (Homo sapiens, UniProt P49759); conditions: CLK1, 100 nM; read-out: Percent Control
T4 construct: purchased DiscoveRx KINOMEscan (TRKA and CSF1R IC50 enzymes from Invitrogen)
T4 sequence (P49759 whole entry): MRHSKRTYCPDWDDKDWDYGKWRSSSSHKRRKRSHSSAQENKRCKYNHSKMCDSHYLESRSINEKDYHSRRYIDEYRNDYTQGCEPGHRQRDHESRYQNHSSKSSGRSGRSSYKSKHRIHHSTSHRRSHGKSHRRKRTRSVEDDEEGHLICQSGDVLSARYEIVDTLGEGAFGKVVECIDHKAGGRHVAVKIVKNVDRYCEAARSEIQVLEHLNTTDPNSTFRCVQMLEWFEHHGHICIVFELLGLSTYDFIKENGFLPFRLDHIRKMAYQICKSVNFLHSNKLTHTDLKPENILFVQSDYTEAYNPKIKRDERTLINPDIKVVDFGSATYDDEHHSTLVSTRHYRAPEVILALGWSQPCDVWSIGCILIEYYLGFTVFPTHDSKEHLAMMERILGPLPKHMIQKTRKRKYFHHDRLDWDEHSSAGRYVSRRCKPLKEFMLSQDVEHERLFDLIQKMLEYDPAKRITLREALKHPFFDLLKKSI

[5] = target: T5, CTK (Homo sapiens, UniProt P42679); conditions: 100 nM, read-out: Percent Control
T5 construct: purchased DiscoveRx KINOMEscan (TRKA and CSF1R IC50 enzymes from Invitrogen)

[6] = target: T6, DLK (Homo sapiens, UniProt Q12852); conditions: 100 nM, read-out: Percent Control
T6 construct: purchased DiscoveRx KINOMEscan (TRKA and CSF1R IC50 enzymes from Invitrogen)

[7] = target: T7, DMPK (Homo sapiens, UniProt Q09013); conditions: 100 nM, read-out: Percent Control
T7 construct: purchased DiscoveRx KINOMEscan (TRKA and CSF1R IC50 enzymes from Invitrogen)
T7 sequence (Q09013 whole entry): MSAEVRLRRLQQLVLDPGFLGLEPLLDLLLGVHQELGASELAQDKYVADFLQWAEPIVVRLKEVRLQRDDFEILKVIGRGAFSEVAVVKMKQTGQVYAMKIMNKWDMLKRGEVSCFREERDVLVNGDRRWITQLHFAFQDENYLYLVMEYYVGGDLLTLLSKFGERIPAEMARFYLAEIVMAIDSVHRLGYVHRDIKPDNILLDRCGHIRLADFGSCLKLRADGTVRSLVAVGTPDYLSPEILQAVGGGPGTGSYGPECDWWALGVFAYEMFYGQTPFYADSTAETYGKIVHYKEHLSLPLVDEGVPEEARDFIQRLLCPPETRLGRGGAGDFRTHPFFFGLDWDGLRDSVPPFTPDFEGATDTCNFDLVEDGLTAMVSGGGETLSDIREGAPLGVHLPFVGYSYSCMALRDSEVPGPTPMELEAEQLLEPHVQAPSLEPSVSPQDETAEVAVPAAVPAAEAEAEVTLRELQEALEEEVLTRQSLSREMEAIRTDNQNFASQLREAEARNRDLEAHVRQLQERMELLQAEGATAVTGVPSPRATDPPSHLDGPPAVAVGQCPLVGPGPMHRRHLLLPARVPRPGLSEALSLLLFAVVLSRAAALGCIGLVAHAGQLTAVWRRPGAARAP

[8] = target: T8, DRAK1 (Homo sapiens, UniProt Q9UEE5); conditions: DRAK1, 100 nM; read-out: Percent Control
T8 construct: purchased DiscoveRx KINOMEscan (TRKA and CSF1R IC50 enzymes from Invitrogen)

[9] = target: T9, DYRK1A (Homo sapiens, UniProt Q13627); conditions: 100 nM, read-out: Percent Control
T9 construct: purchased DiscoveRx KINOMEscan (TRKA and CSF1R IC50 enzymes from Invitrogen)

[10] = target: T10, ERK1 (Homo sapiens, UniProt P27361); conditions: ERK1, 100 nM; read-out: Percent Control
T10 construct: purchased DiscoveRx KINOMEscan (TRKA and CSF1R IC50 enzymes from Invitrogen)

[11] = target: T11, FGFR3 (Homo sapiens, UniProt P22607); conditions: FGFR3, 100 nM; read-out: Percent Control
T11 construct: purchased DiscoveRx KINOMEscan (TRKA and CSF1R IC50 enzymes from Invitrogen)

[12] = target: T12, FRK (Homo sapiens, UniProt P42685); conditions: 100 nM
T12 construct: purchased DiscoveRx KINOMEscan (TRKA and CSF1R IC50 enzymes from Invitrogen)
T12 sequence (P42685 whole entry): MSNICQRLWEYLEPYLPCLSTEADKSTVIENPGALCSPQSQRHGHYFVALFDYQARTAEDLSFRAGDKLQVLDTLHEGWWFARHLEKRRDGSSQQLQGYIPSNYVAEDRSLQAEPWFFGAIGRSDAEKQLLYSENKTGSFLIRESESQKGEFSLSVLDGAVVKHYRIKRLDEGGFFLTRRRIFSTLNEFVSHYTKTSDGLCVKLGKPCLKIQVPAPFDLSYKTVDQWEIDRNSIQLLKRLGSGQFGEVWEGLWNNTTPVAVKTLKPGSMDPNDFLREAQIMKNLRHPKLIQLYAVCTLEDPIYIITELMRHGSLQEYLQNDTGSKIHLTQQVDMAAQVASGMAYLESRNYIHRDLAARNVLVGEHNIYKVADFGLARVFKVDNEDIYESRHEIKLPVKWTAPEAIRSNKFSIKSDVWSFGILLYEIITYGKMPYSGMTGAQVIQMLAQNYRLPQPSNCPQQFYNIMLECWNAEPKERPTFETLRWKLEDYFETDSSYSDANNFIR

[13] = target: T13, GAK (Homo sapiens, UniProt O14976); conditions: 100 nM, read-out: Percent Control
T13 construct: purchased DiscoveRx KINOMEscan (TRKA and CSF1R IC50 enzymes from Invitrogen)

[14] = target: T14, GSK3B (Homo sapiens, UniProt P49841); conditions: 100 nM, read-out: Percent Control
T14 construct: purchased DiscoveRx KINOMEscan (TRKA and CSF1R IC50 enzymes from Invitrogen)

[15] = target: T15, IGF1R (Homo sapiens, UniProt P08069); conditions: 100 nM, read-out: Percent Control
T15 construct: purchased DiscoveRx KINOMEscan (TRKA and CSF1R IC50 enzymes from Invitrogen)

[16] = target: T16, INSR (Homo sapiens, UniProt P06213); conditions: 100 nM, read-out: Percent Control
T16 construct: purchased DiscoveRx KINOMEscan (TRKA and CSF1R IC50 enzymes from Invitrogen)

[17] = target: T17, ITK (Homo sapiens, UniProt Q08881); conditions: 100 nM, read-out: Percent Control
T17 construct: purchased DiscoveRx KINOMEscan (TRKA and CSF1R IC50 enzymes from Invitrogen)

[18] = target: T18, JAK1(JH2domain-pseudokinase) (Homo sapiens, UniProt P23458); conditions: 100 nM, read-out: Percent Control
T18 construct: JAK1(JH2domain-pseudokinase); purchased DiscoveRx KINOMEscan (TRKA and CSF1R IC50 enzymes from Invitrogen)

[19] = target: T19, LIMK2 (Homo sapiens, UniProt P53671); conditions: LIMK2, 100 nM; read-out: Percent Control
T19 construct: purchased DiscoveRx KINOMEscan (TRKA and CSF1R IC50 enzymes from Invitrogen)

[20] = target: T20, LKB1 (Homo sapiens, UniProt Q15831); conditions: LKB1, 100 nM; read-out: Percent Control
T20 construct: purchased DiscoveRx KINOMEscan (TRKA and CSF1R IC50 enzymes from Invitrogen)

[21] = target: T21, LTK (Homo sapiens, UniProt P29376); conditions: 100 nM, read-out: Percent Control
T21 construct: purchased DiscoveRx KINOMEscan (TRKA and CSF1R IC50 enzymes from Invitrogen)

[22] = target: T22, MAP4K3 (Homo sapiens, UniProt Q8IVH8); conditions: MAP4K3, 100 nM; read-out: Percent Control
T22 construct: purchased DiscoveRx KINOMEscan (TRKA and CSF1R IC50 enzymes from Invitrogen)

[23] = target: T23, MKNK2 (Homo sapiens, UniProt Q9HBH9)
T23 construct: purchased DiscoveRx KINOMEscan (TRKA and CSF1R IC50 enzymes from Invitrogen)
T23 sequence (Q9HBH9 whole entry): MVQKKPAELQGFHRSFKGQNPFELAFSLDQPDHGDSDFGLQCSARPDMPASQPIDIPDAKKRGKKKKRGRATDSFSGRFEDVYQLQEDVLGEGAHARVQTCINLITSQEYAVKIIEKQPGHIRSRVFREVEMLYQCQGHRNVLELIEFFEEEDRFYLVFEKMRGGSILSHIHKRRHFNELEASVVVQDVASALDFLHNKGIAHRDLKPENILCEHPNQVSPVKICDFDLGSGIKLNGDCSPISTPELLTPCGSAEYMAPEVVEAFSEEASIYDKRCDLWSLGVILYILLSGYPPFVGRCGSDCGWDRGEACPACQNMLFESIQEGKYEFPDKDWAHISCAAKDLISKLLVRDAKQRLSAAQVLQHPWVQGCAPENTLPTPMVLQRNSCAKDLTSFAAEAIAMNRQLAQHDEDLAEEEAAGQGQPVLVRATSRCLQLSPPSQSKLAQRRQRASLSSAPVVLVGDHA

[24] = target: T24, MLK3 (Homo sapiens, UniProt Q16584); conditions: MLK3, 100 nM; read-out: Percent Control
T24 construct: purchased DiscoveRx KINOMEscan (TRKA and CSF1R IC50 enzymes from Invitrogen)
T24 sequence (Q16584 whole entry): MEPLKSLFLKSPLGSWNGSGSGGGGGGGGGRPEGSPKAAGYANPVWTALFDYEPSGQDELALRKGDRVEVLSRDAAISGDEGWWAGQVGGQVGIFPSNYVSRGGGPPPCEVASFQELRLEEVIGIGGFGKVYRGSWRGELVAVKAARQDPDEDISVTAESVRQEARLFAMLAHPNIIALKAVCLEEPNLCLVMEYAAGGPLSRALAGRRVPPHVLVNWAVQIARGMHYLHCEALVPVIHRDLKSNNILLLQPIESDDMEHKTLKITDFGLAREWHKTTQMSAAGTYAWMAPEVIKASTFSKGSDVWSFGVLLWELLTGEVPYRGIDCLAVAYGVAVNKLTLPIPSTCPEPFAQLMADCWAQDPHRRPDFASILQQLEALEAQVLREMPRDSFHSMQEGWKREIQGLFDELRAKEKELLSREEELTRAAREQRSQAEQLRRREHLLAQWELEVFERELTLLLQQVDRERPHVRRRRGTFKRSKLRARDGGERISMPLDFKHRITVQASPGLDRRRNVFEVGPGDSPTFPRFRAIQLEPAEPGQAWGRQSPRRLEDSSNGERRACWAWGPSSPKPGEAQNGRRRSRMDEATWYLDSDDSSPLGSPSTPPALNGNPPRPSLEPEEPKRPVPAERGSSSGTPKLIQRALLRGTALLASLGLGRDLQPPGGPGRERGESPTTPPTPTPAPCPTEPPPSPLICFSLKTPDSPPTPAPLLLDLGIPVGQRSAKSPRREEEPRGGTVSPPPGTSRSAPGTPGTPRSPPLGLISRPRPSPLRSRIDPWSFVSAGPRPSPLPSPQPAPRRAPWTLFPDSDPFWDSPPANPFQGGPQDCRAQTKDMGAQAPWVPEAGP

[25] = target: T25, MYLK4 (Homo sapiens, UniProt Q86YV6); conditions: MYLK4, 100 nM; read-out: Percent Control
T25 construct: purchased DiscoveRx KINOMEscan (TRKA and CSF1R IC50 enzymes from Invitrogen)
T25 sequence (Q86YV6 whole entry): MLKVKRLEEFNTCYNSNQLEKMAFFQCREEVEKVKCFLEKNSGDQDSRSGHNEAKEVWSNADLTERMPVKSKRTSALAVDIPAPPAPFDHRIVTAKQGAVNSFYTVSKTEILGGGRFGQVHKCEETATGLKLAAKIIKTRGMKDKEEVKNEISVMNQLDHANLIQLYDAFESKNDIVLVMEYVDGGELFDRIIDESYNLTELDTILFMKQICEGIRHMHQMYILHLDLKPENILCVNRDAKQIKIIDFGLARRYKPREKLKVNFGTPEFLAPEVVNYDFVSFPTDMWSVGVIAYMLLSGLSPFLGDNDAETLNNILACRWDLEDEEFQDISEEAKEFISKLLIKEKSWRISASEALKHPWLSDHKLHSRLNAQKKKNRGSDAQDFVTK

[26] = target: T26, MYO3A (Homo sapiens, UniProt Q8NEV4); conditions: 100 nM, read-out: Percent Control
T26 construct: purchased DiscoveRx KINOMEscan (TRKA and CSF1R IC50 enzymes from Invitrogen)

[27] = target: T27, PIK3C2B (Homo sapiens, UniProt O00750); conditions: 100 nM, read-out: Percent Control
T27 construct: purchased DiscoveRx KINOMEscan (TRKA and CSF1R IC50 enzymes from Invitrogen)
T27 sequence (O00750 whole entry): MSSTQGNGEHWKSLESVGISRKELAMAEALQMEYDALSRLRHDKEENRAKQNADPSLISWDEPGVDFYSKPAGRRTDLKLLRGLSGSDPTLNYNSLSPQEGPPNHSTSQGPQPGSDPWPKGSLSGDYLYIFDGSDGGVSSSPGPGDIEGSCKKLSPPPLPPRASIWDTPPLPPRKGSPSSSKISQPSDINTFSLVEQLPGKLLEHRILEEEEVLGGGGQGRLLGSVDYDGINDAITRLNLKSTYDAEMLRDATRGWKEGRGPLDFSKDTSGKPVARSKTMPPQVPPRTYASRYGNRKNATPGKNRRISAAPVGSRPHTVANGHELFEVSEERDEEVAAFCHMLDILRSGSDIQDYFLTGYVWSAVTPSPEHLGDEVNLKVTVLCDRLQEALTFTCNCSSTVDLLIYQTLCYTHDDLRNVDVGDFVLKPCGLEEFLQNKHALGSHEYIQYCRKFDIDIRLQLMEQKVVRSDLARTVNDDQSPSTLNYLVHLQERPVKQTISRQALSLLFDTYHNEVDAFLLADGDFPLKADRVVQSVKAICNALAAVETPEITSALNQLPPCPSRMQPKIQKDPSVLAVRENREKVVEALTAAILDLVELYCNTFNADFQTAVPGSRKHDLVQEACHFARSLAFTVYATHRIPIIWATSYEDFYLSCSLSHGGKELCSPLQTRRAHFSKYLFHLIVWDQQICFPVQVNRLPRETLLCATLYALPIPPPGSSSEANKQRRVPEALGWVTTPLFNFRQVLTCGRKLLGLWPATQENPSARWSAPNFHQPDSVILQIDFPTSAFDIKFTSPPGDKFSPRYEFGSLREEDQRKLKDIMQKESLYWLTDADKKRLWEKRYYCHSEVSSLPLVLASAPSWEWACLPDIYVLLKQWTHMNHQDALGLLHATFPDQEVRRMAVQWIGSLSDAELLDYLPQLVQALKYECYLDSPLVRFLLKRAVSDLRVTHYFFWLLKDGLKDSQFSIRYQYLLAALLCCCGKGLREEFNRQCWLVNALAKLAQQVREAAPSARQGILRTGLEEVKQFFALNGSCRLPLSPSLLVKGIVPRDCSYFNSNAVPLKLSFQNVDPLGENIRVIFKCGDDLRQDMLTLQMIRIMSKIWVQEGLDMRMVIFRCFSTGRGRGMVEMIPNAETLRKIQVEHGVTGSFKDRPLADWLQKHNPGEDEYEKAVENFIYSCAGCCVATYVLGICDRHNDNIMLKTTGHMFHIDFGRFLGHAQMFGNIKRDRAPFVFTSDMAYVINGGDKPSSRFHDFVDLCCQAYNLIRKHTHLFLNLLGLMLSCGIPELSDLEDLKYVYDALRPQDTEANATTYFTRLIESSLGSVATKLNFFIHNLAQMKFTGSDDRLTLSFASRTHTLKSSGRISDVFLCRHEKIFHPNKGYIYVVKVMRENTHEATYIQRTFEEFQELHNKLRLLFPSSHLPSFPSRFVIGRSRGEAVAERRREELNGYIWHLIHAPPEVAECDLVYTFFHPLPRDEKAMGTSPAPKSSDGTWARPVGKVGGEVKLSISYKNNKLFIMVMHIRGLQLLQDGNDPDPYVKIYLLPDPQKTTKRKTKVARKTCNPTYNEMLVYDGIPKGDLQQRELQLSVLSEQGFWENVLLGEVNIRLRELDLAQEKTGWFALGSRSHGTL

[28] = target: T28, PIM1 (Homo sapiens, UniProt P11309); conditions: PIM1, 100 nM; read-out: Percent Control
T28 construct: purchased DiscoveRx KINOMEscan (TRKA and CSF1R IC50 enzymes from Invitrogen)

[29] = target: T29, RIPK4 (Homo sapiens, UniProt P57078); conditions: RIPK4, 100 nM; read-out: Percent Control
T29 construct: purchased DiscoveRx KINOMEscan (TRKA and CSF1R IC50 enzymes from Invitrogen)

[30] = target: T30, ROCK2 (Homo sapiens, UniProt O75116); conditions: ROCK2, 100 nM; read-out: Percent Control
T30 construct: purchased DiscoveRx KINOMEscan (TRKA and CSF1R IC50 enzymes from Invitrogen)

[31] = target: T31, TIE2 (Homo sapiens, UniProt Q02763); conditions: TIE2, 100 nM; read-out: Percent Control
T31 construct: purchased DiscoveRx KINOMEscan (TRKA and CSF1R IC50 enzymes from Invitrogen)

`CC(C)(C)c1cc(NC(=O)Cc2ccc(-n3cnc4cc(-c5ccc(S(C)(=O)=O)cc5)ccc43)cc2)no1` [NPA101.3] gave a remaining binding at 0.1 µM [1] of 95%, a remaining binding at 0.1 µM [2] of 100% and a remaining binding at 0.1 µM [3] of 79%. It also gave a remaining binding at 0.1 µM [4] of 82%, a remaining binding at 0.1 µM [5] of 56% and a remaining binding at 0.1 µM [6] of 100%. For the same compound, the remaining binding at 0.1 µM [7] was 99%, the remaining binding at 0.1 µM [8] was 75% and the remaining binding at 0.1 µM [9] was 95%. For the same compound, the remaining binding at 0.1 µM [10] was 100%, the remaining binding at 0.1 µM [11] was 100% and the “binding (% bound)” value [12] was greater than 90 % bound. The remaining binding at 0.1 µM ([12]; FRK, read-out: Percent Control) was 1.1%, the remaining binding at 0.1 µM [13] was 42% and the remaining binding at 0.1 µM [14] was 100%. It also gave a remaining binding at 0.1 µM [15] of 100%, a remaining binding at 0.1 µM [16] of 100% and a remaining binding at 0.1 µM [17] of 72%. For the same compound, the remaining binding at 0.1 µM [18] was 93%, the remaining binding at 0.1 µM [19] was 94% and the remaining binding at 0.1 µM [20] was 81%. For the same compound, the remaining binding at 0.1 µM [21] was 61%, the remaining binding at 0.1 µM [22] was 95% and the “binding (% bound)” value ([23]; 100 nM) was greater than 90 % bound. The remaining binding at 0.1 µM ([23]; MKNK2, 100 nM, read-out: Percent Control) was 0.15%, the remaining binding at 0.1 µM [24] was 100% and the remaining binding at 0.1 µM [25] was 89%. The remaining binding at 0.1 µM [26] was 77%, the remaining binding at 0.1 µM [27] was 100% and the remaining binding at 0.1 µM [28] was 94%. It also gave a remaining binding at 0.1 µM [29] of 100%, a remaining binding at 0.1 µM [30] of 100% and a remaining binding at 0.1 µM [31] of 30%.
